According to patent US6548553B2, “Styryl sulfone anticancer agents” (Temple University-of the Commonwealth System of Higher …, priority 1997, dated 2003):

Experiments:
LnCaP and MCF-7 cells = experiment: Trypan blue exclusion viability assay, Tables 2-4; type: cell-based; details: 5.0 μM compound, 48 hours; for viability at 5 µM: read-out: % viable LnCaP and MCF-7 cells
Experimental: (§1) The effect of the styryl sulfones on the growth of normal and tumor cells of breast and prostate was examine utilizing four cell lines, NIH3T3, MCF-7, BT-20 and LnCap. NIH/3T3 cells represent normal fibroblasts while LnCap is an androgen-dependent prostate tumor cell line. MCF-7 is an estrogen-responsive breast tumor cell line, while BT-20 is an estrogen-unresponsive breast tumor cell line. MCF-7 and BT-20 were grown in Dulbecco's modified Eagle's medium (DMEM) containing 10% fetal bovine serum supplemented with penicillin and streptomycin. LnCaP were cultured in RPMI with 10% fetal bovine serum containing penicillin and streptomycin. NIH3T3 cells were grown in DMEM containing 10% calf serum supplemented with penicillin and streptomycin. All cell cultures were maintained at 37° C. in a humidified atmosphere of 5% CO2.
Cells were treated with test compound at 2.5 μM or 5.0 μM concentration and cell viability was determined after 48 hours by the Trypan blue exclusion method. The compounds identified in Tables 2, 3 and 4 inhibited cell growth and induced cell death, to varying degrees. The tables list the percent viable LnCap and MCF-7 cells treated with 5.0 μM compound.

[1] = system: LnCaP, BT-20 and MCF-7 cells; experiment: Trypan blue exclusion viability/proliferation assay (dose and time course); type: cell-based
Experimental: as §1
(§2) The compounds identified in Tables 2, 3 and 4 inhibited cell growth and induced cell death, to varying degrees. The tables list the percent viable LnCap and MCF-7 cells treated with 5.0 μM compound.
(§3) NIH3T3, MCF-7, BT-20 and LnCaP cells were treated with FRI-20 dissolved in DMSO to concentrations of 250 nM, 500 nM, 1 μM, 2.5 μM and 5 μM and examined for their proliferation and viability after 48 hours (FIG. 2A). The percentage of living cells was determined by Trypan blue exclusion. The control cells were treated with DMSO to determine the effect of solvent on cells. […] Under these conditions, only 2-3% of NIH3T3 cells were non-viable at both the concentrations. […] After 48 hours incubation, 60-75% of the LnCaP, BT-20 and MCF-7 cells were dead at […] FRI-20 concentration, whereas more than 90% of NIH3T3 cells were viable (FIG. 2A).
NIH/3T3, MCF-7, BT-20 and LnCap were treated with FRI-20 at 2.5 μM and the number of viable cells was determined at 12, 24, 48 and 72 hours by Trypan blue exclusion.

[2] = Trypan blue exclusion viability assay, normal fibroblasts; type: cell-based; parameters: viability at 48 h: dose or concentration left out as unconfirmed; details: mouse, NIH3T3 cells (normal fibroblasts); for viability at 48 h: 48 hours incubation, read-out: viable NIH3T3 cells
Experimental: as §1, §2
as §3, with “The” for “NIH3T3, MCF-7, BT-20 and LnCaP cells were treated with FRI-20 dissolved in DMSO to concentrations of 250 nM, 500 nM, 1 μM, 2.5 μM and 5 μM and examined for their proliferation and viability after 48 hours (FIG. 2A). The”

[3] = system: LnCaP, BT-20 and MCF-7 cells; experiment: Trypan blue exclusion viability/proliferation assay (dose and time course); type: cell-based; details: 2.5 mM (FIG. 1A) and 5.0 mM (FIG. 1B), 48 hours of treatment
U87 = experiment: GI50 growth inhibition, trypan blue cell count; type: cell-based, human; details: glioblastoma, 96 hours after addition
Experimental: (§4) The human carcinoma cell lines listed in Table 5 below were purchased from ATCC and grown in an appropriate growth medium containing 10% fetal bovine serum (FBS) and antibiotics. The cells were plated at a cell density of 1.0×10^5 cells per […] in 6-well dishes. The cells were treated with various concentrations of (E)-fluorostyryl-4-bromobenzylsulfone 24 hours after plating in a total volume of 1 ml of medium using dimethylsulfoxide (DMSO) as a solvent for the compound. Control cells were treated with DMSO alone. The total number of viable cells was determined 96 hours after the addition of the compound by counting the cells in each well using a hemacytometer after trypan blue staining (viable cells exclude the stain). The counts were done in duplicate and the average was graphed in FIG. 8 as a percentage of the non-treated control group.

BT20 = experiment: GI50 growth inhibition, trypan blue cell count; type: cell-based, human; details: breast, estrogen receptor negative, 96 hours after addition
Experimental: as §4

H157 = experiment: GI50 growth inhibition, trypan blue cell count; type: cell-based, human; details: lung, non-small cell, 96 hours after addition
Experimental: as §4

MIA-PaCa-2 = experiment: GI50 growth inhibition, trypan blue cell count; type: cell-based, human; details: pancreatic, 96 hours after addition
Experimental: as §4

DU145 = experiment: GI50 growth inhibition, trypan blue cell count; type: cell-based, human; details: prostate, androgen receptor negative, 96 hours after addition
Experimental: as §4

DLD-1 = experiment: GI50 growth inhibition, trypan blue cell count; type: cell-based, human; details: cob-rectal, 96 hours after addition
Experimental: as §4

SK-MEL-28 = experiment: GI50 growth inhibition, trypan blue cell count; type: cell-based; details: Homo sapiens, melanoma, 96 hours after addition
Experimental: as §4

LnCaP cells = experiment: Comparison with cisplatin, Trypan blue viability after 72 hours; type: cell-based; details: LnCaP, 72 hours, Trypan blue exclusion
Experimental: (§5) The killing effect of FR-20 on androgen-sensitive (LnCaP) and androgen insensitive (DU145) prostate tumor cells was compared to the effect of cisplatin (cis-diamminedichloroplatinum II), a widely used anti-prostate cancer agent. The cells were grown as in Example 26. FRI-20 or cisplatin was dissolved in DMSO and added to the cells at various concentrations. Viability was determined after 72 hours by the Trypan blue exclusion method. The concentration of FRI-20 required to completely kill LnCaP and DU145 cells was 2.5 μM and 5.0 μM, respectively. Under identical conditions, complete killing of LnCaP and DU145 cells by cisplatin required 25 μM and 15 μM concentrations, respectively.

DU145 cells = experiment: as above; type: cell-based; details: DU145, 72 hours, Trypan blue exclusion
Experimental: as §5

SMILES: O=S(=O)(/C=C/c1ccc(Br)cc1)c1ccc(Cl)cc1 [Example 8, E-4-bromostyryl 4-chlorophenyl Sulfone]
- viability at 5 µM (LnCaP and MCF-7 cells): 69%

SMILES: COc1ccc(/C=C/S(=O)(=O)c2ccc(Cl)cc2)cc1 [Example 7, E-4-methoxystyryl 4-chlorophenyl Sulfone]
- viability at 5 µM (LnCaP and MCF-7 cells): 90%

SMILES: O=S(=O)(/C=C/c1ccc(Cl)cc1)Cc1ccc(Br)cc1 [Example 18, E-4-chlorostyryl 4-bromobenzyl Sulfone]
- activity (growth inhibition and cell death) [1]: highly active
- viability at 5 µM (LnCaP and MCF-7 cells): 7%

SMILES: O=S(=O)(/C=C\c1ccccc1)/C=C/c1ccc(Br)cc1 [Example 21, (Z)-styryl-(E)-4-bromostyryl Sulfone]
- viability at 5 µM (LnCaP and MCF-7 cells): 68%

SMILES: O=S(=O)(/C=C/c1ccc(F)cc1)Cc1ccc(F)cc1 [Example 13, E-4-fluorostyryl 4-fluorobenzyl Sulfone]
- viability at 5 µM (LnCaP and MCF-7 cells): 43%

SMILES: O=S(=O)(/C=C/c1ccc(Br)cc1)c1ccccc1 [Example 4, E-4-bromostyryl Phenyl Sulfone]
- viability at 5 µM (LnCaP and MCF-7 cells): 68%

SMILES: O=S(=O)(/C=C/c1ccc(Cl)cc1)Cc1ccc(Cl)cc1 [Example 12, E-4-chlorostyryl 4-chlorobenzyl Sulfone]
- viability at 48 h, 5 µM [2]: > 80%
- viability at 48 h [2]: > 80%
- viability at 5 µM (LnCaP and MCF-7 cells): 49%
- inhibition of growth and induction of death of LnCaP, BT-20 and MCF-7 cells [3]: substantially inhibit the growth and induce the death

SMILES: O=S(=O)(/C=C/c1ccc(Cl)cc1Cl)c1ccccc1 [Example 3, E-2,4-dichlorostyryl Phenyl Sulfone]
- viability at 5 µM (LnCaP and MCF-7 cells): 88%

SMILES: O=S(=O)(/C=C/c1ccc(F)cc1F)Cc1ccc(F)cc1 [Example 14, E-2,4-difluorostyryl 4-fluorobenzyl Sulfone]
- viability at 48 h, 5 µM [2]: > 80%
- viability at 48 h [2]: > 80%
- viability at 5 µM (LnCaP and MCF-7 cells): 56%
- inhibition of growth and induction of death of LnCaP, BT-20 and MCF-7 cells [3]: substantially inhibit the growth and induce the death

SMILES: O=S(=O)(/C=C/c1ccc(F)cc1Cl)Cc1ccc(Cl)cc1 [Example 36, E-(2)-chloro-4-fluorostyryl-4-chlorobenzylsulfone]
- GI50 (U87): 1800 nM
- GI50 (BT20): 900 nM
- GI50 (H157): 1500 nM
- GI50 (MIA-PaCa-2): 1000 nM
- GI50 (DU145): 2000 nM
- GI50 (DLD-1): 800 nM

SMILES: O=C(C(=Cc1ccc(Br)cc1)S(=O)(=O)c1ccc(Cl)cc1)c1ccccc1 [Example 26, 2-[(4-chlorophenyl)sulfonyl]-1-phenyl-3-(4-bromophenyl)-2-propen-1-one]
- viability at 5 µM (LnCaP and MCF-7 cells): 58%

SMILES: O=C(C(=Cc1ccc(Br)cc1)S(=O)(=O)c1ccccc1[N+](=O)[O-])c1ccccc1 [Example 27, 2-[(2-nitrophenyl)sulfonyl]-1-phenyl-3-(4-bromophenyl)-2-propen-1-one]
- viability at 5 µM (LnCaP and MCF-7 cells): 74%

SMILES: O=S(=O)(/C=C\c1ccccc1)/C=C/c1ccc(Cl)cc1 [Example 22, (Z)-styryl-(E)-4-chlorostyryl Sulfone]
- viability at 5 µM (LnCaP and MCF-7 cells): 72%

SMILES: O=S(=O)(/C=C/c1ccccc1Cl)Cc1ccccc1 [Example 9, E-2-chlorostyryl Benzyl Sulfone]
- viability at 5 µM (LnCaP and MCF-7 cells): 94%

SMILES: O=S(=O)(/C=C/c1ccc(Br)cc1)Cc1ccc(F)cc1 [Example 17, E-4-bromostyryl 4-fluorobenzyl Sulfone]
- viability at 48 h, 5 µM [2]: > 80%
- viability at 48 h [2]: > 80%
- viability at 5 µM (LnCaP and MCF-7 cells): 42%
- inhibition of growth and induction of death of LnCaP, BT-20 and MCF-7 cells [3]: substantially inhibit the growth and induce the death

SMILES: O=S(=O)(/C=C/c1ccc(Br)cc1)Cc1ccc(Cl)cc1 [Example 19, E-4-bromostyryl 4-chlorobenzyl Sulfone]
- activity (growth inhibition and cell death) [1]: highly active
- viability at 5 µM (LnCaP and MCF-7 cells): 20%

SMILES: O=S(=O)(/C=C/c1ccc(Br)cc1)Cc1ccc(Br)cc1 [Example 16, E-4-bromostyryl 4-bromobenzyl Sulfone]
- viability at 5 µM (LnCaP and MCF-7 cells): 51%

SMILES: O=S(=O)(/C=C\c1ccccc1)/C=C/c1ccc(F)cc1 [Example 20, (Z)-styryl-(E)-4-fluorostyryl Sulfone]
- viability at 5 µM (LnCaP and MCF-7 cells): 76%

SMILES: O=S(=O)(/C=C/c1ccccc1)c1ccccc1 [Example 1, E-styryl Phenyl Sulfone]
- viability at 5 µM (LnCaP and MCF-7 cells): 89%

SMILES: O=S(=O)(/C=C/c1ccc(Cl)cc1)Cc1ccccc1 [Example 10, E-4-chlorostyryl Benzyl Sulfone]
- viability at 5 µM (LnCaP and MCF-7 cells): 87%

SMILES: O=C(C(=Cc1ccc(Br)cc1)S(=O)(=O)c1ccccc1Cl)c1ccccc1 [Example 25, 2-[(2-chlorophenyl)sulfonyl]-1-phenyl-3-(4-bromophenyl)-2-propen-1-one]
- viability at 5 µM (LnCaP and MCF-7 cells): 72%

SMILES: O=C(C(=Cc1ccc(F)cc1)S(=O)(=O)c1ccc(F)cc1)c1ccccc1 [Example 23, 2-[(4-fluorophenyl)sulfonyl]-1-phenyl-3-(4-fluorophenyl)-2-propen-1-one]
- viability at 5 µM (LnCaP and MCF-7 cells): 76%

SMILES: O=S(=O)(/C=C/c1ccc(F)cc1)Cc1ccc(Br)cc1 [Example 15, E-4-fluorostyryl 4-bromobenzyl Sulfone]
- GI50 (U87; Homo sapiens, U-87 MG): 1000 to 2000 nM
- GI50 (BT20; Homo sapiens, BT-20): 1000 to 2000 nM
- GI50 (H157; Homo sapiens, NCI-H157): < 1000 nM
- GI50 (MIA-PaCa-2; Homo sapiens, MIA PaCa-2): < 1000 nM
- GI50 (DU145; Homo sapiens, DU-145): 2500 nM
- GI50 (DLD-1; Homo sapiens, DLD-1): < 1000 nM
- viability at 48 h, 5 µM [2]: > 80%
- viability at 48 h [2]: > 80%
- viability at 5 µM (LnCaP and MCF-7 cells): 7%
- inhibition of growth and induction of death of LnCaP, BT-20 and MCF-7 cells [3]: substantially inhibit the growth and induce the death
- GI50 (SK-MEL-28): 1000 to 2000 nM

SMILES: O=C(C(=Cc1ccc(F)cc1)S(=O)(=O)c1ccccc1Cl)c1ccccc1 [Example 24]
- % viable LnCaP and MCF-7 cells (LnCaP and MCF-7 cells): 64%

SMILES: Cc1ccc(/C=C/S(=O)(=O)c2ccc(Cl)cc2)cc1 [Example 6, E-4-methylstyryl 4-chlorophenyl Sulfone]
- viability at 5 µM (LnCaP and MCF-7 cells): 92%

SMILES: N.N.[Cl][Pt][Cl] [cisplatin, cis-diamminedichloroplatinum II, reference compound]
- concentration required to completely kill cells (LnCaP cells): 25 µM
- concentration required to completely kill cells (DU145 cells): 15 µM

SMILES: O=S(=O)(/C=C/c1ccc(Cl)cc1)c1ccccc1 [Example 2, E-4-chlorostyryl Phenyl Sulfone]
- viability at 5 µM (LnCaP and MCF-7 cells): 90%

SMILES: O=S(=O)(/C=C/c1ccc(Cl)cc1)c1ccc(Cl)cc1 [Example 5, E-4-chlorostyryl 4-chlorophenyl Sulfone]
- viability at 5 µM (LnCaP and MCF-7 cells): 64%
